This is an account of results in patent publication US10519152B2, “Compounds and their use in treating cancer” (AstraZeneca AB, priority 2017, dated 2019).

The test addresses T1, recombinant human Estrogen Receptor alpha ligand binding domain, residues 307-554 (ER alpha-LBD (GST)) (Homo sapiens, UniProt P03372).
T1 construct: made in house
T1 sequence (P03372 307-554): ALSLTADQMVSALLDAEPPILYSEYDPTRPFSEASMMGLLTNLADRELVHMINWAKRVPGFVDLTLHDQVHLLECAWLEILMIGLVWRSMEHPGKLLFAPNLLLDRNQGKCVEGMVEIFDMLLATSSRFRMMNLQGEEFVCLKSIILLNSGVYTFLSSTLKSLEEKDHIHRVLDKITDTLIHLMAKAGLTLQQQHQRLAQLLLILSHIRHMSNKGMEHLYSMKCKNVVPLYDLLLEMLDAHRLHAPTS
As to the kind of experiment: ERα binding assay (LanthaScreen TR-FRET competition). The settings on record: TR-FRET competition with Fluormone ES2 tracer, 4 hours at room temperature; single experiment or average of two or more.

As for `Cc1ncsc1-c1ccc(CNC(=O)[C@@H]2C[C@@H](O)CN2C(=O)[C@@H](NC(=O)COCCOCCOCCCCNC(=O)c2cc(F)c([C@@H]3c4[nH]c5ccccc5c4C[C@@H](C)N3CC(C)(C)F)c(F)c2)C(C)(C)C)cc1` [Example 83, (2S,4R)-1-((S)-17-(tert-Butyl)-1-(3,5-difluoro-4-((1R,3R)-2-(2-fluoro-2-methylpropyl)-3-methyl-2,3,4,9-tetrahydro-1H-pyrido[3,4-b]indol-1-yl)phenyl)-1,15-dioxo-7,10,13-trioxa-2,16-diazaoctadecan-18-oyl)-4-hydroxy-N-(4-(4-methylthiazol-5-yl)benzyl)pyrrolidine-2-carboxamide], the concentration for half-maximal inhibition (IC50) was 1.1 nM.

In the case of `Cc1ncsc1-c1ccc(CNC(=O)[C@@H]2C[C@@H](O)CN2C(=O)[C@@H](NC(=O)c2cnn(CCOCCNC(=O)/C=C/c3cc(F)c([C@@H]4c5[nH]c6ccccc6c5C[C@@H](C)N4CC(C)(C)F)c(F)c3)c2)C(C)(C)C)cc1` [Example 64, 1-(2-(2-((E)-3-(3,5-difluoro-4-((1R,3R)-2-(2-fluoro-2-methylpropyl)-3-methyl-2,3,4,9-tetrahydro-1H-pyrido[3,4-b]indol-1-yl)phenyl)acrylamido)ethoxy)ethyl)-N—((S)-1-((2S,4R)-4-hydroxy-2-((4-(4-methylthiazol-5-yl)benzyl)carbamoyl)pyrrolidin-5-yl)-3,3-dimethyl-1-oxobutan-2-yl)-1H-pyrazole-4-carboxamide, Trifluoroacetic Acid], the IC50 was found to be 0.4 nM.

Turning to `Cc1ncsc1-c1ccc(CNC(=O)[C@@H]2C[C@@H](O)CN2C(=O)[C@@H](NC(=O)COCCOCCOCCOc2cc(F)c([C@@H]3c4[nH]c5ccccc5c4C[C@@H](C)N3CC3(F)CC3)c(F)c2)C(C)(C)C)cc1` [Example 77, (2S,4R)-1-((S)-2-(tert-Butyl)-14-(3,5-difluoro-4-((1R,3R)-2-((1-fluorocyclopropyl)methyl)-3-methyl-2,3,4,9-tetrahydro-1H-pyrido[3,4-b]indol-1-yl)phenoxy)-4-oxo-6,9,12-trioxa-3-azatetradecanoyl)-4-hydroxy-N-(4-(4-methylthiazol-5-yl)benzyl)pyrrolidine-2-carboxamide], the half-inhibitory concentration (IC50) was determined as 2.6 nM.

For the compound `Cc1ncsc1-c1ccc(CNC(=O)[C@@H]2C[C@@H](O)CN2C(=O)[C@@H](NC(=O)COCCCCCOc2cc(F)c([C@@H]3c4[nH]c5ccccc5c4C[C@@H](C)N3CC(F)(F)F)c(F)c2)C(C)(C)C)cc1` [Example 96], the IC50 was determined as 0.6 nM.

For the compound `Cc1ncsc1-c1ccc(CNC(=O)[C@@H]2C[C@@H](O)CN2C(=O)[C@@H](NC(=O)COCCOCCOCCNC(=O)/C=C/c2cc(F)c([C@@H]3c4[nH]c5ccccc5c4C[C@@H](C)N3CC(C)(C)F)c(F)c2)C(C)(C)C)cc1` [Example 63, (2S,4R)-1-((S,E)-2-(tert-butyl)-18-(3,5-difluoro-4-((1R,3R)-2-(2-fluoro-2-methylpropyl)-3-methyl-2,3,4,9-tetrahydro-1H-pyrido[3,4-b]indol-1-yl)phenyl)-4,16-dioxo-6,9,12-trioxa-3,15-diazaoctadec-17-enoyl)-4-hydroxy-N-(4-(4-methylthiazol-5-yl)benzyl)pyrrolidine-2-carboxamide, Trifluoroacetic Acid], the concentration for half-maximal inhibition (IC50) came to 1 nM.

As to `Cc1ncsc1-c1ccc(CNC(=O)[C@@H]2C[C@@H](O)CN2C(=O)[C@@H](NC(=O)COCCNC(=O)/C=C/c2cc(F)c([C@@H]3c4[nH]c5ccccc5c4C[C@@H](C)N3CC(C)(C)F)c(F)c2)C(C)(C)C)cc1` [Example 62, (2S,4R)-1-((S)-2-(2-(2-((E)-3-(3,5-difluoro-4-((1R,3R)-2-(2-fluoro-2-methylpropyl)-3-methyl-2,3,4,9-tetrahydro-1H-pyrido[3,4-b]indol-1-yl)phenyl)acrylamido)ethoxy)acetamido)-3,3-dimethylbutanoyl)-4-hydroxy-N-(4-(4-methylthiazol-5-yl)benzyl)pyrrolidine-2-carboxamide, Trifluoroacetic Acid], the IC50 was determined as 0.5 nM.
